Laboratory results: US20230127898A1, “HEPATITIS B CAPSID ASSEMBLY MODULATORS” (Venatorx Pharmaceuticals, Inc., priority 2020, published 2023)
Where two headings read alike, the source gives them in different places.

Columns and labels:
[1] = system: HBV replication in HepAD38 cells; assay: In vitro antiviral assay: extracellular HBV DNA by QPCR in HepAD38 cells; type: cell-based, HBV (genotype D, serotype ayw); details: Hepatitis B virus, 168 h
Method: The anti-HBV activity of the Capsid Assembly Modulators (CAMs) was evaluated in a cell based assay utilizing the human hepatoma cell line HepAD38 (Ladner, S K., et al., 1998). HepAD38 cells were derived from the parental line, HepG2, that were stably transfected with a construct containing an HBV genome (genotype D, serotype ayw) under the control of a tetracycline repressible CMV promoter. Upon removal of tetracycline, viral pre-genomic RNA (pgRNA) and mRNAs are expressed and infectious viral particles are assembled and secreted into the culture medium providing a reliable, robust system to measure multiple steps of the HBV life cycle. Disruption of capsid formation results in reduced levels of DNA-containing virus particles that are released into the culture supernatant. To quantify the effect of CAMs on HBV replication, we developed a sensitive QPCR-based assay that measures extracellular HBV DNA levels upon treatment of HepAD38 cells with various concentrations of test compounds.
HepAD38 cells were maintained in DMEM/F12 medium containing 10% FBS, 400 μg/mL G418 and 0.3 μg/mL tetracycline (tet+media) to maintain repression of HBV replication. To evaluate each compound, HepAD38 cells were seeded into 24-well collagen coated culture plates (Corning BioCoat) at a density of 200,000 cells per well in 1 mL of medium without tetracycline (tet-media) and allowed to adhere overnight at 37° C., 5% CO2 in a humidified incubator. The following day, media was refreshed and a dose range of each compound was prepared by performing 1 log10 serial dilutions in 100% DMSO at 200×the desired assay concentration. Dilutions were then added to the cells resulting in a final dose range of 1 μM to 10 pM and the plates were returned to the incubator. Following 7 days of incubation, culture supernatants were harvested and HBV DNA levels were evaluated by QPCR and compared to the vehicle treated control wells (i.e. DMSO alone).
To quantify HBV DNA levels, cell culture supernatants were diluted 1:10 in sterile, nuclease-free water (Gibco). The diluted supernatants were subsequently added to a PCR master mix containing 1×Roche Light Cycler Master Mix, 0.5 μM forward primer, 0.5 μM reverse primer, 0.2 μM Roche Universal Probe Library Probe 25. The volume was brought to 20 μL with nuclease-free water and amplification of the HBV target sequence was performed using a Roche LightCycler 480 QPCR instrument. PCR extended out to 45 cycles with each cycle consisting of a denaturation step at 95° C. for 10 sec., followed by an annealing step at 60° C. for 10 sec. and a brief extension step at 72° C. for 1 sec.
Extracellular HBV DNA levels, expressed in copies/mL, were determined by comparison to a standard curve (10^2-10^9 copies/mL) using the Roche LightCycler analysis software. These values were subsequently converted to percent inhibition of HBV replication by dividing the HBV DNA levels in the experimental samples with those obtained from the vehicle control (˜1-2×10^5 copies/mL). Potency, expressed as an EC50(the effective concentration required to inhibit 50% of HBV replication), was calculated from the dose-response curve using a 4-parameter non-linear regression analysis (GraphPad Prism). The nucleoside analog inhibitor entecavir was used as a positive control to validate each assay run. The EC50 value of entecavir in the HepAD38 assay was 0.5 nM, as previously reported in the literature.

[2] = In vitro cytotoxicity assay (MTT cell viability) in HepG2 cells; type: cell-based; details: human
Method: To evaluate antiviral selectivity, the cytotoxic activity of each compound was determined using a standard cell viability assay performed on the parental HepG2 cell line. Cell viability was determined by measuring the conversion of 3-(4,5-dimethylthiazol-2-yl)-2,5-diphenyltetrazolium bromide (MTT) to the insoluble formazan salt crystal that occurs in live cells. Briefly, HepG2 cells were seeded in 96-well plates at a density of 20,000 cells per well in EMEM+10% FBS (complete growth medium) and allowed to adhere overnight in a 37° C., 5% CO2 humidified incubator. The next day, test agents were prepared by performing 8 half-log10 serial dilutions in 100% DMSO at 200×the final desired concentration in the assay. Compounds were tested over a range of concentrations from 30 μM to 1.0 nM in the assay. HepG2 cells were incubated in the presence of various concentrations of CAMs for 7 days in a 37° C., 5% CO2 humidified incubator. At the completion of the 7-day incubation period, MTT reagent was added to each well and the mixture was incubated for an additional 3-4 hours. At the completion of the incubation period, all wells were aspirated to remove the culture medium. The formazan crystals were solubilized from the cell monolayers with 100% DMSO. Plates were briefly mixed on an orbital shaker and absorbance was measured at 492 nm using a Perkin-Elmer EnVision multi-label plate reader. All absorbance values were converted to a percentage of the signal obtained from the vehicle treated controls. Absorbance values at 492 nm are directly proportional to the number of viable cells present in the sample. A CC50 value (cytotoxic concentration that results in loss of 50% cell viability) was calculated from the dose-response curve by 4-parameter, non-linear regression analysis using the GraphPad Prism software. The positive control compound, staurosporine, reduced the viability of HepG2 cells in a dose-dependent manner (CC50=100 nM).

HBV = details: Phase 1b clinical trial, 600 mg bid dosing for 29 days; cited from earlier work
[3] = 7 days incubation, read-out: Anti-HBV EC50

SMILES	EC50 [1, 3] [nM]	CC50 at 7 days [2] [nM]	reduction in HBV DNA (HBV) [log 10]	EC50 ([1]; positive control, 7 days, read-out: EC50 in the HepAD38 assay) [nM]	CC50 at 7 days ([2]; positive control, HepG2 cells, 7 days, MTT, read-out: CC50 (viability of HepG2 cells)) [nM]
Cc1c(C(=O)Nc2ccc(F)c(F)c2)c2c(n1C)C(=O)NC(C)(C)CC2 [Example 2, N-(3,4-difluorophenyl)-1,2,6,6-tetramethyl-8-oxo-1,4,5,6,7,8-hexahydropyrrolo[2,3-c]azepine-3-carboxamide]	50 to 499	5000 to 30000			
CCn1c(C)c2c(c1C(=O)Nc1ccc(F)c(C)c1)CCC(C)(C)NC2=O [Example 3, 2-ethyl-N-(4-fluoro-3-methylphenyl)-3,6,6-trimethyl-4-oxo-2,4,5,6,7,8-hexahydropyrrolo[3,4-c]azepine-1-carboxamide]	< 50	> 30000			
Cc1cc(NC(=O)c2c3c(c(C)n2C)C(=O)NC(C)(C)CC3)ccc1F [Example 4, N-(4-fluoro-3-methylphenyl)-2,3,6,6-tetramethyl-4-oxo-2,4,5,6,7,8-hexahydropyrrolo[3,4-c]azepine-1-carboxamide]	< 50	> 30000			
Cc1c2c(c(C(=O)Nc3cc(F)c(F)c(F)c3)n1C)CCC(C)(C)NC2=O [Example 5, 2,3,6,6-tetramethyl-4-oxo-N-(3,4,5-trifluorophenyl)-2,4,5,6,7,8-hexahydropyrrolo[3,4-c]azepine-1-carboxamide]	> 1000	> 30000			
Cc1cc(NC(=O)c2c3c(c(C)n2C)C(=O)NC(C)(C)CC3)cnc1F [Example 6, N-(6-fluoro-5-methylpyridin-3-yl)-2,3,6,6-tetramethyl-4-oxo-2,4,5,6,7,8-hexahydropyrrolo[3,4-c]azepine-1-carboxamide]	> 1000	> 30000			
Cc1c2c(c(C(=O)Nc3ccnc(F)c3)n1C)CCC(C)(C)NC2=O [Example 7, N-(2-fluoropyridin-4-yl)-2,3,6,6-tetramethyl-4-oxo-2,4,5,6,7,8-hexahydropyrrolo[3,4-c]azepine-1-carboxamide]	50 to 499	> 30000			
Cc1c2c(c(C(=O)Nc3cccc(Cl)c3)n1C)CCC(C)(C)NC2=O [Example 8, N-(3-chlorophenyl)-2,3,6,6-tetramethyl-4-oxo-2,4,5,6,7,8-hexahydropyrrolo[3,4-c]azepine-1-carboxamide]	50 to 499	> 30000			
Cc1c2c(c(C(=O)Nc3cccc(C(F)F)c3)n1C)CCC(C)(C)NC2=O [Example 9, N-(3-(difluoromethyl)phenyl)-2,3,6,6-tetramethyl-4-oxo-2,4,5,6,7,8-hexahydropyrrolo[3,4-c]azepine-1-carboxamide]	50 to 499	> 30000			
Cc1ccc(F)c(NC(=O)c2c3c(c(C)n2C)C(=O)NC(C)(C)CC3)c1 [Example 10, N-(2-fluoro-5-methylphenyl)-2,3,6,6-tetramethyl-4-oxo-2,4,5,6,7,8-hexahydropyrrolo[3,4-c]azepine-1-carboxamide]	< 50	> 30000			
Cc1cc(F)cc(NC(=O)c2c3c(c(C)n2C)C(=O)NC(C)(C)CC3)c1 [Example 11, N-(3-fluoro-5-methylphenyl)-2,3,6,6-tetramethyl-4-oxo-2,4,5,6,7,8-hexahydropyrrolo[3,4-c]azepine-1-carboxamide]	< 50	> 30000			
Cc1c2c(c(C(=O)Nc3ccc(F)c(C(F)F)c3)n1C)CCC(C)(C)NC2=O [Example 12, N-(3-(difluoromethyl)-4-fluorophenyl)-2,3,6,6-tetramethyl-4-oxo-2,4,5,6,7,8-hexahydropyrrolo[3,4-c]azepine-1-carboxamide]	< 50	> 30000			
C=C1c2c(c(C)n(C)c2C(=O)Nc2ccc(F)c(C)c2)C(=O)NC1C (centres unmarked) [Example 22, N-(4-fluoro-3-methylphenyl)-2,3,6-trimethyl-7-methylene-4-oxo-4,5,6,7-tetrahydro-2H-pyrrolo[3,4-c]pyridine-1-carboxamide]	500 to 1000	500 to 4990			
Cc1cc(NC(=O)c2c3c(c(C)n2C)C(=O)NC(C)C3C)ccc1F (centres unmarked) [Example 23, N-(4-fluoro-3-methylphenyl)-2,3,6,7-tetramethyl-4-oxo-4,5,6,7-tetrahydro-2H-pyrrolo[3,4-c]pyridine-1-carboxamide]	< 50	> 30000			
Cc1cc(NC(=O)c2c3c(c(C)n2C)C(=O)NC(C)CC3)ccc1F (centres unmarked) [Example 24, N-(4-fluoro-3-methylphenyl)-2,3,6-trimethyl-4-oxo-2,4,5,6,7,8-hexahydropyrrolo[3,4-c]azepine-1-carboxamide]	< 50	> 30000			
Cc1cc(NC(=O)c2c3c(n(C)c2C)C(=O)NC(C)CC3)ccc1F (centres unmarked) [Example 25, N-(4-fluoro-3-methylphenyl)-1,2,6-trimethyl-8-oxo-1,4,5,6,7,8-hexahydropyrrolo[2,3-c]azepine-3-carboxamide]	< 50	> 30000			
Cc1cc(NC(=O)c2c3c(C)c(C)[nH]c(=O)c3c(C)n2C)ccc1F [Example 45, N-(4-fluoro-3-methylphenyl)-2,3,6,7-tetramethyl-4-oxo-4,5-dihydro-2H-pyrrolo[3,4-c]pyridine-1-carboxamide]	500 to 1000	5000 to 30000			
Cc1cc(NC(=O)c2c3c(c(C)n2C)C(=O)N[C@@H](C)C3)ccc1F [Example 46, (S)-N-(4-fluoro-3-methylphenyl)-2,3,6-trimethyl-4-oxo-4,5,6,7-tetrahydro-2H-pyrrolo[3,4-c]pyridine-1-carboxamide]	< 50	> 30000			
Cc1cccc(NC(=O)c2c3c(c(C)n2C)C(=O)N[C@@H](C)C3)c1F [Example 47, (S)-N-(2-fluoro-3-methylphenyl)-2,3,6-trimethyl-4-oxo-4,5,6,7-tetrahydro-2H-pyrrolo[3,4-c]pyridine-1-carboxamide]	500 to 1000	> 30000			
Cc1c2c(c(C(=O)Nc3ccc(F)c(F)c3)n1C)CCC(C)NC2=O (centres unmarked) [Example 48, N-(3,4-difluorophenyl)-2,3,6-trimethyl-4-oxo-2,4,5,6,7,8-hexahydropyrrolo[3,4-c]azepine-1-carboxamide]	500 to 1000	> 30000			
O=C(Nc1cc(F)c(F)c(F)c1)c1ccc(F)c(S(=O)(=O)N2CCC(O)CC2)c1 [NVR 3-778]			−1.7		
C=C1[C@H](CO)[C@@H](O)C[C@@H]1n1cnc2c(=O)[nH]c(N)nc21 [entecavir, reference compound]				0.5	
CN[C@@H]1C[C@H]2O[C@@](C)([C@@H]1OC)n1c3ccccc3c3c4c(c5c6ccccc6n2c5c31)C(=O)NC4 [staurosporine, reference compound]					100
